Here are results for one compound from US20220117938A1, “COMBINATON THERAPY WITH A DON PRODRUG AND AN IMMUNE CHECKPOINT INHIBITOR” (DRACEN PHARMACEUTICALS, INC., priority 2019, published 2022).

SMILES strings stand for the structures.

This experiment concerns MC-38 tumors. Nature of the experiment: MC-38 re-implantation study in tumor free mice (Example 3). The format is in vivo, Mus musculus. The following applies: for Tumor volume (Mean ± SEM): four tumor free mice of Group 5 (0.7 mpk 5-days ON 2-days OFF x 4 cycles). As to the method:
Four mice in Group 5 were tumor free on D67 and 1×10^6 MC-38 cells suspended in 100 μL base DMEM were inoculated subcutaneously into the left flank. 5 naïve mice were inoculated with the same inoculation condition as control. The tumor sizes were measured three times per week during the treatment. The study was terminated on D102.
Four mice in Group 5 were tumor free on D67 and 1×10^6 MC-38 cells suspended in 100 μL base DMEM were inoculated subcutaneously into the left flank. 5 naïve mice were inoculated with the same inoculation condition as control.

The mark [1] stands for this setting: 4 cured mice of Group 5 (0.7 mpk) re-implanted with MC-38 cells.

For the compound `CC(=O)N[C@@H](Cc1c[nH]c2ccccc12)C(=O)N[C@@H](CCC(=O)C=[N+]=[N-])C(=O)OC(C)C` [Compound 1, Isopropyl (S)-2-((S)-2-acetamido-3-(1H-indol-3-yl)propanamido)-6-diazo-5-oxohexanoate], under setting [1], the “Re-implanted cured mice still tumor free on Day 35 after re-implantation” value is reported as “one”. The “Re-implanted cured mice that regrew the tumor” value under setting [1] is recorded as “three”. In addition, the “Tumor volume (Mean ± SEM)” value (Day 7 after re-implantation) turned out to be 32 ± 14 mm^3; the “Tumor volume (Mean ± SEM)” value (Day 9 after re-implantation) is given as 106 ± 44 mm^3; the “Tumor volume (Mean ± SEM)” value (Day 11 after re-implantation) was found to be 152 ± 55 mm^3; the “Tumor volume (Mean ± SEM)” value (Day 14 after re-implantation) is recorded as 373 ± 174 mm^3; the “Tumor volume (Mean ± SEM)” value (Day 16 after re-implantation) worked out at 568 ± 258 mm^3; the “Tumor volume (Mean ± SEM)” value (Day 18 after re-implantation) stood at 886 ± 429 mm^3. Further, where the note is “Day 21 after re-implantation”, the “Tumor volume (Mean ± SEM)” value is on record as 1911 ± 794 mm^3.
